From patent US9708628B2, “Cationic lipid having improved intracellular kinetics” (NOF CORPORATION, priority 2011, dated 2017)

How the values were obtained:
HT1080 cells = test: Endosomal escape efficiency (rhodamine-pDNA, Lysotracker Green, 6 hr); assay type: cell-based; conditions: 6 hr after transfection
Procedure: For MEND preparation, the Rhodamine-labeled pDNA prepared by the method of [Experimental Example 1] (4) was used. When MEND encapsulating rhodamine-labeled pDNA was prepared, 50% of the pDNA solution described in [Experimental Example 1] (1) was replaced by rhodamine-labeled pDNA.
MENDs having a composition of B-2-4 (Example 4):DOPE:Chol=3:3:4, B-2 (Example 1):SOPE:Chol=5:3:2 were prepared by the method described in [Experimental Example 1] (2). For the preparation, PEG2000-DMG was used as PEG lipid, and MEND solutions corresponding to 0.55 mM of the lipid concentration were prepared.
HT1080 cells were plated on a glass bottom dish at 5×10^4 cells/2 mL/dish 24 hr before. MEND was diluted with DMEM (FBS 10%+) to achieve pDNA 1.6 μg/2 mL and transfected into cells. After 5.5 hr, Lysotracker Green (Life technologies) was added at 2 μL/dish. 6 hr after the transfection, the cells were washed twice with heparin (20 units/mL, 2 mL), Krebs buffer (1 mL) was added, and the cells were observed by a confocal laser scan microscope.
Rhodamine-labeled pDNA, endosome/lysosome and nucleus were shown in pseudo colors of red, green and blue, respectively. The endosomal escape efficiency was calculated according to the following formula.

liver [1] = test: Intrahepatic behavior of MEND (intravital confocal microscopy); assay type: in vivo, ICR mice; conditions: Rhodamine-DOPE labeled MEND, 40 μg DNA/mouse, about 10 min filming
Procedure: Rhodamine-DOPE was added to R8/GALA-MEND in an amount of 0.1% of the total lipid concentration, and to B-2 MEND in an amount of 1% of the total lipid concentration. 50 mg/mL Sodium pentobarbital (Nacalai Tesque) was diluted 5-fold with saline and intraperitoneally administered to ICR mice (5-week-old male) for anesthesia. Griffonia simplicifolia Lectin I-B4 Isolectin, FITC Conjugate (VECTOR Laboratories, about 80 μL) was administered to the mice under anesthesia from the tail vein to stain the vascular endothelial cells. […] A winged intravenous indwelling needle connected with an extension tube filled with the MEND solution was indwelled in the tail vein of the mouse. To prevent dislocation of the observation site due to the heart beat of the mouse, a device for fixing the liver by adsorption (Shimizu K et al., J Biosci Bioeng. 112(5): 508-10) was used, and the mouse was observed using a confocal microscope (Nikon A1) with a 60-fold water immersion lens.

liver [2] = test: Time course of gene expression activity in the liver (IVIS imaging, total luminescence in abdomen); assay type: in vivo, ICR mice; conditions: for luminescence / gene expression time course: 40 μg DNA, tail vein
Source text: As a DNA to be mounted on MEND composed of B-2 in this case, […]-Luc(0) described in WO 2011/132713 was used as pDNA completely excluding CpG sequence known to induce immune response and, as a general pDNA having a CpG sequence, a plasmid DNA (pcDNA3.1-Luc(+); CpG sequence total 425) containing a CpG sequence in the back bone of the plasmid DNA and having a CpG sequence even between the initiation codon and the stop codon of the luciferase sequence (marker gene) was used. In gene transfer using cationic MEND and in vivo […]-Luc(0) alone was used. 6, 24, 72 hr later, luciferin (in vivo grade, Promega) corresponding to 3 mg was intraperitoneally administered to the mice, and imaging was performed using IVIS LuminaII (Caliper Life Sciences). As for MEND composed of B-2, imaging was performed about twice a week even after 72 hr. The total luminescence amount in the mouse abdomen was calculated as photon/sec from the obtained images, and used as an index of gene expression activity in the liver.

SMILES	endosomal escape efficiency (HT1080 cells)	behavior in liver blood vessels (liver [1])	time at which luminescence completely disappeared (liver [2]; pCpGfree-Luc(0)) [days]	luminescence / gene expression time course (liver [2]; pCpGfree-Luc(0))	luminescence / gene expression time course (liver [2]; pcDNA3.1-Luc(+))
CC1=C(/C=C/C(C)=C/C=C/C(C)=C/C(=O)OCCCN(C)CCSSCCN(C)CCCOC(=O)/C=C(C)/C=C/C=C(C)/C=C/C2=C(C)CCCC2(C)C)C(C)(C)CCC1 [Example B-2-4]	significantly higher endosomal escape efficiency than B-2	–	–	–	–
CCCCCCCCCCCCCC(=O)OCCCN(C)CCSSCCN(C)CCCOC(=O)CCCCCCCCCCCCC [Example B-2]	–	coagulation was not formed and the MEND uniformly flows through the blood vessels	18	luminescence amount increased from 6 hr to 24 hr later, after which the luminescence amount was retained for the subsequent one week	weak luminescence 6 hr later, after which the gene expression decreased
